Test results reported in US20020068749A1, “AIDS REMEDY” (priority 1996, published 2002).
≈ marks a conversion by molar mass, not a printed value.

Experiments:
[1] = Dynamics in vivo (concentration in plasma over time) of KNI-272 and Ritonavir in dogs; conditions: for MRT / AUC / Cmax / Tmax: dog, plasma, 15 mg/kg
[2] = tested on: Ritonavir resistant strain; test: Anti-virus activity IC50 against Ritonavir resistant strain; format: cell-based, HIV; conditions: Human immunodeficiency virus 1, read-out: Anti-virus activity IC50
[3] = po, KNI-272 15 mg/kg p.o., administered after Ritonavir, dogs
[4] = po, KNI-272 15 mg/kg p.o., administered before Ritonavir, dogs

CSC[C@H](NC(=O)COc1cccc2cnccc12)C(=O)N[C@@H](Cc1ccccc1)[C@H](O)C(=O)N1CSC[C@H]1C(=O)NC(C)(C)C [KNI-272, (R)-N-1,1-dimethylethyl-3-[(2S,3S)-2-hydroxy-3-[(R)-2-(5-isoquinolyloxyacetyl)amino-3-methylthiopropanoyl]amino-4-phenylbutanoyl]-1,3-thiazolidine-4-carboxyamide]
Cltot ([1]; KNI-272 15 mg/kg i.v., dogs): 1.49 h⁻¹ kg⁻¹ | Vd(ss) ([1]; KNI-272 15 mg/kg i.v., dogs): 0.70 kg⁻¹ | F ([1]; KNI-272 15 mg/kg p.o., administered after Ritonavir, dogs): 55.2% | F ([1]; KNI-272 15 mg/kg p.o., administered before Ritonavir, dogs): 4.6% | MRT ([1]; iv, KNI-272 15 mg/kg i.v., dogs): 28.2 min | AUC ([1]; iv, KNI-272 15 mg/kg i.v., independent administration, dogs): 10100 ng·h/mL | AUC ([1]; po, KNI-272 15 mg/kg p.o., administered after Ritonavir (100 mg/body p.o., 30 min interval), dogs): 5570 ng·h/mL | Cmax [1, 3]: 2800 ng/mL | MRT [1, 3]: 96.8 min | Tmax [1, 3]: 30 min | AUC ([1]; po, KNI-272 15 mg/kg p.o., administered before Ritonavir (100 mg/body p.o., 30 min interval), dogs): 467 ng·h/mL | Cmax [1, 4]: 1000 ng/mL | MRT [1, 4]: 30.8 min | Tmax [1, 4]: 5 min | MRT value (index of the half-life of concentration in blood) ([1]; medicaments individually administered): 30 min | IC50 [2]: 0.304 µg/mL (≈ 0.455 µM)
